Results from patent publication US8685977B2, “Chemical compounds” (Pfizer Limited, priority 2010, dated 2014).

Target: T1, Nav1.7 (or SCN9A) channel (Homo sapiens, UniProt Q15858)
T1 construct: expressed in transfected cells
Experiment: Nav1.7 PatchXpress 7000 automated electrophysiology assay (HEK cells stably expressing hSCN9A)
Type: cell-based
Conditions: voltage-clamped at V1/2 of inactivation, read-out: Nav1.7 EIC50
Procedure: The ability of the compounds of formula (I) to block the Nav1.7 (or SCN9A) channel was measured using the assays described below.
Human Embryonic Kidney (HEK) cells were transfected with an hSCN9A construct using lipofectamine reagent (Invitrogen), using standard techniques. Cells stably expressing the hSCN9A constructs were identified by their resistance to G-418 (400 μg/ml). Clones were screened for expression using the whole-cell voltage-clamp technique.
HEK cells stably transfected with hSCN9A were maintained in DMEM medium supplemented with 10% heat-inactivated fetal bovine serum and 400 μg/ml G-418 in an incubator at 37° C. with a humidified atmosphere of 10% CO2. For HTS, cells were harvested from flasks by trypsinization and replated in an appropriate multi-well plate (typically 96 or 384 wells/plate) such that confluence would be achieved within 24 hours of plating. For electrophysiological studies, cells were removed from the culture flask by brief trypsinization and re-plated at low density onto glass cover slips. Cells were typically used for electrophysiological experiments within 24 to 72 hours after plating.
Cover slips containing HEK cells expressing hSCN9A were placed in a bath on the stage of an inverted microscope and perfused (approximately 1 ml/minutes) with extracellular solution of the following composition: 138 mM NaCl, 2 mM CaCl2, 5.4 mM KCl, 1 mM MgCl2, 10 mM glucose, and 10 mM HEPES, pH 7.4, with NaOH. […] The osmolarity of the extracellular and intracellular solutions was 300 mOsm/kg and 295 mOsm/kg, respectively. All recordings were made at room temperature (22-24° C.) using AXOPATCH 200B amplifiers and PCLAMP software (Axon Instruments, Burlingame, Calif.).
HEK cells stably transfected with hSCN9A were viewed under Hoffman contrast optics and placed in front of an array of flow pipes emitting either control or compound-containing extracellular solutions. All compounds were dissolved in dimethyl sulfoxide to make 10 mM stock solutions, which were then diluted into extracellular solution to attain the final concentrations desired. […] The voltage-dependence of inactivation was determined by applying a series of depolarizing prepulses (8 sec long in 10 mV increments) from a negative holding potential. The voltage was then immediately stepped to 0 mV to assess the magnitude of the sodium current. Currents elicited at 0 mV were plotted as a function of prepulse potential to allow estimation of the voltage at which 50% of the channels were inactivated (midpoint of inactivation or V1/2). Compounds were tested for their ability to inhibit hSCN9A sodium channels by activating the channel with a 20 msec voltage step to 0 mV following an 8 second conditioning prepulse to the empirically determined V1/2. Compound effect (% inhibition) was determined by difference in current amplitude before and after application of test compounds. For ease of comparison, “estimated IC-50” (EIC50) values were calculated from single point electrophysiology data by the following equation, (tested concentration, uM)×(100-% inhibition/% inhibition). Inhibition values <20% and >80% were excluded from the calculation.
Electrophysiological assays were conducted with PatchXpress 7000 hardware and associated software (Molecular Devices Corp). All assay buffers and solutions were identical to those used in conventional whole-cell voltage clamp experiments described above. hSCN9A cells were grown as above to 50%-80% confluency and harvested by trypsinization. Trypsinized cells were washed and resuspended in extracellular buffer at a concentration of 1×10^6 cells/ml. The onboard liquid handling facility of the PatchXpress was used for dispensing cells and application of test compounds. Determination of the voltage midpoint of inactivation was as described for conventional whole-cell recordings. Cells were then voltage-clamped to the empirically determined V1/2 and current was activated by a 20 msec voltage step to 0 mV. […]

T1 sequence (Q15858 whole entry): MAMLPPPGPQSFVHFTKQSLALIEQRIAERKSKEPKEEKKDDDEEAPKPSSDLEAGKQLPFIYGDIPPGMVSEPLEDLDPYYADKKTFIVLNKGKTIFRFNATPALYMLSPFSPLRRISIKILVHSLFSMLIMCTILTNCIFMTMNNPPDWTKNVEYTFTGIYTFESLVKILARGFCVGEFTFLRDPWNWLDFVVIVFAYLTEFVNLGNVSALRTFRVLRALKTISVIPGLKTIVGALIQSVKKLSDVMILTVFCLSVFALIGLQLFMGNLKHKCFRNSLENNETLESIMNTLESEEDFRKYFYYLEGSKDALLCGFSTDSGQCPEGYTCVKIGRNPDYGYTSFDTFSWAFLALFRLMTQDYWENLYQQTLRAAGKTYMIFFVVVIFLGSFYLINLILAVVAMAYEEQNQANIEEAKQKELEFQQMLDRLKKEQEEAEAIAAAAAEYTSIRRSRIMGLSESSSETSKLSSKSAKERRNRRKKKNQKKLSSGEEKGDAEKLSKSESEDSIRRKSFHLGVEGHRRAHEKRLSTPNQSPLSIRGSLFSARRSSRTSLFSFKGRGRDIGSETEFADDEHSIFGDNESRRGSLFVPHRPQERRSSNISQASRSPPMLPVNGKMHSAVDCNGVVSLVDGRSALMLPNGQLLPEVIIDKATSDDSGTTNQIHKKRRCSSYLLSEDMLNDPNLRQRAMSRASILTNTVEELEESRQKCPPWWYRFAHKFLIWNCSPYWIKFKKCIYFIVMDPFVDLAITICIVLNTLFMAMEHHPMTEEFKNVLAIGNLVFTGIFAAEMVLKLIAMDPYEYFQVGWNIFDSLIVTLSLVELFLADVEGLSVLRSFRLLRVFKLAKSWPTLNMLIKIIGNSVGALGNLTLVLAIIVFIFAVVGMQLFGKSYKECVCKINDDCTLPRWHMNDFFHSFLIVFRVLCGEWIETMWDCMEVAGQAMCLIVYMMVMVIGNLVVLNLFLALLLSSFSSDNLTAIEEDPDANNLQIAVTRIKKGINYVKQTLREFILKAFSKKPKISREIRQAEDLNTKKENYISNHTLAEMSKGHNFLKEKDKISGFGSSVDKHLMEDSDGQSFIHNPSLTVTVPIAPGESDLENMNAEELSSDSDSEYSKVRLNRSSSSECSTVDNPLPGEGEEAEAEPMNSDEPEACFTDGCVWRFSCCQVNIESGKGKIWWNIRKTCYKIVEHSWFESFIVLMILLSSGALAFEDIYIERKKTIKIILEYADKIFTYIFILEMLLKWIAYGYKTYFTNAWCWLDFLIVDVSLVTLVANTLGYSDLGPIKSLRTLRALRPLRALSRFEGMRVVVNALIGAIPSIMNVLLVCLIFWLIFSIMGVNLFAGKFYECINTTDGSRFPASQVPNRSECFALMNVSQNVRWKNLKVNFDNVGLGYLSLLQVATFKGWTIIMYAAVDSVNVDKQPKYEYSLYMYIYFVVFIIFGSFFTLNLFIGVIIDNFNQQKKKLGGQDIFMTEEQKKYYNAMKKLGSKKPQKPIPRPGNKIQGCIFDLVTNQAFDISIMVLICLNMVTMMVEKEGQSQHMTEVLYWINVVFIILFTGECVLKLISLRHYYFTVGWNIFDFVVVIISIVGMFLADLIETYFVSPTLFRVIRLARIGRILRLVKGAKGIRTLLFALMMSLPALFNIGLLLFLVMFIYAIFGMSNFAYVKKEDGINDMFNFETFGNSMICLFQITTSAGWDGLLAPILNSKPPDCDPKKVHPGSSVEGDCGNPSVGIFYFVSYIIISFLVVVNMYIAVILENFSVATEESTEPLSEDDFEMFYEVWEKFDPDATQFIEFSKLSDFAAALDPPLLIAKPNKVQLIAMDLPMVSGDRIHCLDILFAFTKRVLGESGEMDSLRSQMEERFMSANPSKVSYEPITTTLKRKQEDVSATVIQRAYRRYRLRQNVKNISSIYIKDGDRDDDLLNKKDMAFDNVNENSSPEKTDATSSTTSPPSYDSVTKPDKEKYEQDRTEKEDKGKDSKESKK

`O=C(NS(=O)(=O)C1CC1)c1ccc(Oc2ccc(Cl)c(C(F)(F)F)c2)cc1` [Example 1, 4-[4-Chloro-3-(trifluoromethyl)phenoxy]-N-(cyclopropylsulfonyl)benzamide] and `CS(=O)(=O)NC(=O)c1ccc(Oc2ccc(Cl)c(C(F)(F)F)c2)cc1` [Example 15, 4-[4-chloro-3-(trifluoromethyl)phenoxy]-N-(methylsulfonyl)benzamide] are within 1.5-fold of each other in IC50: 810 nM for the first, 930 nM for the second.

Compared with `CS(=O)(=O)NC(=O)c1cc(Cl)c(Oc2ccc(Cl)c(Cl)c2)cc1F` [Example 2, 5-Chloro-4-(3,4-dichlorophenoxy)-2-fluoro-N-(methylsulfonyl)benzamide], `CS(=O)(=O)NC(=O)c1cc(F)c(Oc2ccc(Cl)c(Cl)c2)cc1F` [Example 21, 4-(3,4-dichlorophenoxy)-2,5-difluoro-N-(methylsulfonyl)benzamide] is 7-fold higher in IC50: 64 nM for the first, 450 nM for the second. The first is the more potent here.

Going from `CCc1cc(Cl)ccc1Oc1cc(F)c(C(=O)NS(C)(=O)=O)cc1F` [Example 3, 4-(4-Chloro-2-ethylphenoxy)-2,5-difluoro-N-(methylsulfonyl)benzamide] to `CCc1cc(F)ccc1Oc1cc(F)c(C(=O)NS(C)(=O)=O)cc1Cl` [Example 18, 5-chloro-4-(2-ethyl-4-fluorophenoxy)-2-fluoro-N-(methylsulfonyl)benzamide], the IC50 falls from 1700 nM to 370 nM (4.6-fold). The second is the more potent here.

Compared with `CCc1cc(C(=O)NS(C)(=O)=O)ccc1Oc1ccc(Cl)c(Cl)c1` [Example 4, 4-(3,4-Dichlorophenoxy)-3-ethyl-N-(methylsulfonyl)benzamide], `CS(=O)(=O)NC(=O)c1ccc(Oc2ccc(Cl)c(Cl)c2)c(F)c1` [Example 34, 4-(3,4-dichlorophenoxy)-3-fluoro-N-(methylsulfonyl)benzamide] is 6-fold higher in IC50: 250 nM for the first, 1500 nM for the second.

`CS(=O)(=O)NC(=O)c1cc(Cl)c(Oc2ccc(OC(F)(F)F)c(Cl)c2)cc1F` [Example 7, 5-chloro-4-[3-chloro-4-(trifluoromethoxy)phenoxy]-2-fluoro-N-(methylsulfonyl)benzamide] and `CS(=O)(=O)NC(=O)c1cc(Cl)c(Oc2ccc(Cl)c(OC(F)(F)F)c2)cc1F` [Example 17, 5-chloro-4-[4-chloro-3-(trifluoromethoxy)phenoxy]-2-fluoro-N-(methylsulfonyl)benzamide] are within 1.5-fold of each other in IC50: 25 nM for the first, 32 nM for the second.

`Cc1cc(C(=O)NS(C)(=O)=O)c(F)cc1Oc1ccc(Cl)c(C(F)(F)F)c1` [Example 8, 4-[4-chloro-3-(trifluoromethyl)phenoxy]-2-fluoro-5-methyl-N-(methylsulfonyl)benzamide] and `CS(=O)(=O)NC(=O)c1cc(Cl)c(Oc2ccc(Cl)c(C(F)(F)F)c2)cc1F` [Example 16, 5-chloro-4-[4-chloro-3-(trifluoromethyl)phenoxy]-2-fluoro-N-(methylsulfonyl)benzamide] are within 1.5-fold of each other in IC50: 35 nM for the first, 40 nM for the second.

Compared with `CS(=O)(=O)NC(=O)c1cc(Cl)c(Oc2ccc(C(F)(F)F)c(Cl)c2)cc1F` [Example 9, 5-chloro-4-(3-chloro-4-(trifluoromethyl)phenoxy)-2-fluoro-N-(methylsulfonyl)benzamide], `CS(=O)(=O)NC(=O)c1cc(F)c(Oc2ccc(C(F)(F)F)c(Cl)c2)cc1F` [Example 33, 4-(3-chloro-4-(trifluoromethyl)phenoxy)-2,5-difluoro-N-(methylsulfonyl)benzamide] is 11-fold higher in IC50: 47 nM for the first, 500 nM for the second. The first is the more potent here.

`COc1cc(C(=O)NS(C)(=O)=O)ccc1Oc1ccc(Cl)c(Cl)c1` [Example 10, 4-(3,4-dichlorophenoxy)-3-methoxy-N-(methylsulfonyl)benzamide] and `CS(=O)(=O)NC(=O)c1ccc(Oc2ccc(Cl)c(Cl)c2)c(C#N)c1` [Example 29, 3-cyano-4-(3,4-dichlorophenoxy)-N-(methylsulfonyl)benzamide] are within 1.5-fold of each other in IC50: 970 nM for the first, 950 nM for the second.

First: CS(=O)(=O)NC(=O)c1cc(Cl)c(Oc2ccc(Cl)cc2OC(F)F)cc1F [Example 11, 5-chloro-4-[4-chloro-2-(difluoromethoxy)phenoxy]-2-fluoro-N-(methylsulfonyl)benzamide]
Second: CS(=O)(=O)NC(=O)c1cc(F)c(Oc2ccc(OC(F)F)c(Cl)c2)cc1F [Example 13, 4-[3-chloro-4-(difluoromethoxy)phenoxy]-2,5-difluoro-N-(methylsulfonyl)benzamide]
The IC50 of the first is 5.8-fold lower: 430 nM for the first, 2500 nM for the second.

`CS(=O)(=O)NC(=O)c1ccc(Oc2ccc(Cl)c(C(F)(F)F)c2)cc1F` [Example 14, 4-(4-chloro-3-(trifluoromethyl)phenoxy)-2-fluoro-N-(methylsulfonyl)benzamide] and `CS(=O)(=O)NC(=O)c1ccc(Oc2ccc(Cl)c(Cl)c2)cc1F` [Example 28, 4-(3,4-dichlorophenoxy)-2-fluoro-N-(methylsulfonyl)benzamide] are within 1.5-fold of each other in IC50: 850 nM for the first, 860 nM for the second.

`CCc1cc(F)ccc1Oc1ccc(C(=O)NS(C)(=O)=O)c(F)c1` [Example 19, 4-(2-ethyl-4-fluorophenoxy)-2-fluoro-N-(methylsulfonyl)benzamide] and `CCc1cc(F)ccc1Oc1ccc(C(=O)NS(C)(=O)=O)cc1F` [Example 20, 4-(2-ethyl-4-fluorophenoxy)-3-fluoro-N-(methylsulfonyl)benzamide] cannot be ordered by IC50: greater than 1000 nM for the first, 5400 nM for the second.

First: CCc1cc(F)ccc1Oc1ccc(C(=O)NS(C)(=O)=O)cc1C#N [Example 22, 3-cyano-4-(2-ethyl-4-fluorophenoxy)-N-(methylsulfonyl)benzamide]
Second: CCc1cc(F)ccc1Oc1ccc(C(=O)NS(C)(=O)=O)cc1 [Example 35, 4-(2-ethyl-4-fluorophenoxy)-N-(methylsulfonyl)benzamide]
The IC50 of the first is 2.1-fold lower: 5200 nM for the first, 11000 nM for the second. The first is the more potent here.

First: CCS(=O)(=O)NC(=O)c1ccc(Oc2ccc(Cl)cc2)cc1 [Example 23, 4-(4-chlorophenoxy)-N-(ethylsulfonyl)benzamide]
Second: CS(=O)(=O)NC(=O)c1ccc(Oc2ccc(Cl)cc2)cc1 [Example 24, 4-(4-chlorophenoxy)-N-(methylsulfonyl)benzamide]
The IC50 of the first is 1.7-fold lower: 3400 nM for the first, 5700 nM for the second.

`CS(=O)(=O)NC(=O)c1ccc(Oc2ccc(C#N)c(C#N)c2)cc1` [Example 25, 4-(3,4-dicyanophenoxy)-N-(methylsulfonyl)benzamide] and `CS(=O)(=O)NC(=O)c1ccc(Oc2ccc(Cl)cc2Cl)cc1` [Example 38, 4-(2,4-dichlorophenoxy)-N-(methylsulfonyl)benzamide] cannot be ordered by IC50: greater than 10000 nM for the first, greater than 10000 nM for the second.

Compared with `O=C(NS(=O)(=O)C1CC1)c1ccc(Oc2ccc(Cl)cc2)cc1` [Example 26, 4-(4-chlorophenoxy)-N-(cyclopropylsulfonyl)benzamide], `CS(=O)(=O)NC(=O)c1ccc(Oc2cccc(OC(F)(F)F)c2)cc1` [Example 30, N-(methylsulfonyl)-4-[3-(trifluoromethoxy)phenoxy]benzamide] is 1.8-fold higher in IC50: 430 nM for the first, 760 nM for the second.

Compared with `CS(=O)(=O)NC(=O)c1ccc(Oc2ccc(Cl)c(Cl)c2)c(C(F)(F)F)c1` [Example 27, 4-(3,4-dichlorophenoxy)-N-(methylsulfonyl)-3-(trifluoromethyl)benzamide], `CS(=O)(=O)NC(=O)c1c(F)cc(Oc2ccc(Cl)c(C(F)(F)F)c2)c(F)c1F` [Example 32, 4-(4-chloro-3-(trifluoromethyl)phenoxy)-2,3,6-trifluoro-N-(methylsulfonyl)benzamide] is higher in IC50: 190 nM for the first, greater than 1000 nM for the second. The first is the more potent here.

Compared with `CS(=O)(=O)NC(=O)c1c(F)cc(Oc2ccc(Cl)c(C(F)(F)F)c2)cc1F` [Example 31, 4-(4-chloro-3-(trifluoromethyl)phenoxy)-2,6-difluoro-N-(methylsulfonyl)benzamide], `COc1cc(Oc2ccc(Cl)cc2OC(F)(F)F)ccc1C(=O)NS(C)(=O)=O` [Example 39, 4-[4-chloro-2-(trifluoromethoxy)phenoxy]-2-methoxy-N-(methylsulfonyl)benzamide] is 1.6-fold higher in IC50: 5700 nM for the first, 9300 nM for the second. The first is the more potent here.

Work on `COc1cc(Cl)ccc1Oc1ccc(C(=O)NS(C)(=O)=O)c(OC)c1` [Example 40, 4-(4-chloro-2-methoxyphenoxy)-2-methoxy-N-(methylsulfonyl)benzamide] yielded an IC50 of 25000 nM.
